Experimental data from ChEMBL document CHEMBL1201862, “PubChem BioAssay data set” (2004).
Activity calls are given as the source filed them.

How the values were obtained:
[1] = biological target: T1, Carboxy-terminal domain RNA polymerase II polypeptide A small phosphatase 1 (Homo sapiens, UniProt Q9GZU7); test: inhibitors of CTDSP1, concentration-response testing, biochemical assay, absorbance-based, actives from ultra-high-throughput screening (AID 540297); format: functional
T1 sequence (Q9GZU7 whole entry): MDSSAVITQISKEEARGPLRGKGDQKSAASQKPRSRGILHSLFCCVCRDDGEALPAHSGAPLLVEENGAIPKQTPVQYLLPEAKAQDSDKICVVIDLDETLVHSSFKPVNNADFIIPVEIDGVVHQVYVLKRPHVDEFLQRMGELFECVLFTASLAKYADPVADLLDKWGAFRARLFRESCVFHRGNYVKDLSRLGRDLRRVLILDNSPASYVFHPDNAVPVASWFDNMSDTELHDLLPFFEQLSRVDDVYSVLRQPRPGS

Exodeoxyribonuclease V = biological target: T2, Exodeoxyribonuclease V (Escherichia coli (strain K12), UniProt P04993+P07648+P08394); test: E. coli RecBCD inhibitors, dose response, counter-screen for AddAB inhibitor project, absorbance, V66 E. coli, mutant T4 phage (AID 492957); format: functional, cell-based, Escherichia coli str. K-12 substr. MG1655
T2 sequence (P04993 whole entry): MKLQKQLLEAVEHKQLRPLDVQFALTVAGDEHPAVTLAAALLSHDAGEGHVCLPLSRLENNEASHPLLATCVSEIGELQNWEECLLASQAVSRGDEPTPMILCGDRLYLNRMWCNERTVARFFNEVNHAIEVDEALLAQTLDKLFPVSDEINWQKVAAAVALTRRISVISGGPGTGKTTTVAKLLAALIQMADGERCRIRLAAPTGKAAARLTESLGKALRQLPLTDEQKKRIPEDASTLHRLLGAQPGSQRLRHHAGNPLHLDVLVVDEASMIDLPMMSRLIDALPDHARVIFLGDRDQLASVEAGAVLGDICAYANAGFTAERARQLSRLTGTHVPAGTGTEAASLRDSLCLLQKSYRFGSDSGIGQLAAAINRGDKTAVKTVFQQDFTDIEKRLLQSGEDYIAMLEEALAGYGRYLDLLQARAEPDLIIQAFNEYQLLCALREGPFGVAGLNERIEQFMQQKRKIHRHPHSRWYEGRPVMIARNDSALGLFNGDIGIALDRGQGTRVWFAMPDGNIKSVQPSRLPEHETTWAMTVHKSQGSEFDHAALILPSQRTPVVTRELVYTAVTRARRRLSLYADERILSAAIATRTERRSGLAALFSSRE
T2 sequence (P07648 whole entry): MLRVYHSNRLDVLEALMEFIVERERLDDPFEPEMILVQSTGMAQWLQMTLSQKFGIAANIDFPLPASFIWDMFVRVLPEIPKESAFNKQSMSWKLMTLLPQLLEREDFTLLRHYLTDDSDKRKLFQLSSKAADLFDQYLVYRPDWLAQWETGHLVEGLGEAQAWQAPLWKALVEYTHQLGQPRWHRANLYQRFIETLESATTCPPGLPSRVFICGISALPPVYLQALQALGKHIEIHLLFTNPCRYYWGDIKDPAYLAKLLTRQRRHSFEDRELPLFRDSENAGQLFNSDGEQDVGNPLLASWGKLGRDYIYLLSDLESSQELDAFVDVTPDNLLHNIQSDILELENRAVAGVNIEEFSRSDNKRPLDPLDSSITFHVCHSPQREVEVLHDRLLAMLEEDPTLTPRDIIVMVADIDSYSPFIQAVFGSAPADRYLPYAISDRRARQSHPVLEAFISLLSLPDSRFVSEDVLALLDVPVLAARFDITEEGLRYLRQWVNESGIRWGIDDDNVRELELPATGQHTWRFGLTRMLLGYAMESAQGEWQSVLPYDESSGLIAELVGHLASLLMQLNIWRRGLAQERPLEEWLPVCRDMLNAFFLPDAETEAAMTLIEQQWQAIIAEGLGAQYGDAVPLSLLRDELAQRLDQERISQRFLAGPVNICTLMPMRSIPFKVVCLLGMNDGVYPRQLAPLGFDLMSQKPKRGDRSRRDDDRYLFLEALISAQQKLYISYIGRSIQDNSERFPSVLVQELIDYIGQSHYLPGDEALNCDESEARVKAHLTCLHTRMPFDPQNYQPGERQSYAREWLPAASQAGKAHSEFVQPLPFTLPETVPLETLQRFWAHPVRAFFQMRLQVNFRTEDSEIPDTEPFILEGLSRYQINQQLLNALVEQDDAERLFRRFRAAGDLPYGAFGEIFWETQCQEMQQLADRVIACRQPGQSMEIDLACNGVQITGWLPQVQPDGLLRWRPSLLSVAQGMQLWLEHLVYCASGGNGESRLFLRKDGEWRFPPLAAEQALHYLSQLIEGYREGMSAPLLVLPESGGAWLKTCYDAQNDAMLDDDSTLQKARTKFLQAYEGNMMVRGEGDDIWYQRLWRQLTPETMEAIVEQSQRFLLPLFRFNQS
T2 sequence (P08394 whole entry): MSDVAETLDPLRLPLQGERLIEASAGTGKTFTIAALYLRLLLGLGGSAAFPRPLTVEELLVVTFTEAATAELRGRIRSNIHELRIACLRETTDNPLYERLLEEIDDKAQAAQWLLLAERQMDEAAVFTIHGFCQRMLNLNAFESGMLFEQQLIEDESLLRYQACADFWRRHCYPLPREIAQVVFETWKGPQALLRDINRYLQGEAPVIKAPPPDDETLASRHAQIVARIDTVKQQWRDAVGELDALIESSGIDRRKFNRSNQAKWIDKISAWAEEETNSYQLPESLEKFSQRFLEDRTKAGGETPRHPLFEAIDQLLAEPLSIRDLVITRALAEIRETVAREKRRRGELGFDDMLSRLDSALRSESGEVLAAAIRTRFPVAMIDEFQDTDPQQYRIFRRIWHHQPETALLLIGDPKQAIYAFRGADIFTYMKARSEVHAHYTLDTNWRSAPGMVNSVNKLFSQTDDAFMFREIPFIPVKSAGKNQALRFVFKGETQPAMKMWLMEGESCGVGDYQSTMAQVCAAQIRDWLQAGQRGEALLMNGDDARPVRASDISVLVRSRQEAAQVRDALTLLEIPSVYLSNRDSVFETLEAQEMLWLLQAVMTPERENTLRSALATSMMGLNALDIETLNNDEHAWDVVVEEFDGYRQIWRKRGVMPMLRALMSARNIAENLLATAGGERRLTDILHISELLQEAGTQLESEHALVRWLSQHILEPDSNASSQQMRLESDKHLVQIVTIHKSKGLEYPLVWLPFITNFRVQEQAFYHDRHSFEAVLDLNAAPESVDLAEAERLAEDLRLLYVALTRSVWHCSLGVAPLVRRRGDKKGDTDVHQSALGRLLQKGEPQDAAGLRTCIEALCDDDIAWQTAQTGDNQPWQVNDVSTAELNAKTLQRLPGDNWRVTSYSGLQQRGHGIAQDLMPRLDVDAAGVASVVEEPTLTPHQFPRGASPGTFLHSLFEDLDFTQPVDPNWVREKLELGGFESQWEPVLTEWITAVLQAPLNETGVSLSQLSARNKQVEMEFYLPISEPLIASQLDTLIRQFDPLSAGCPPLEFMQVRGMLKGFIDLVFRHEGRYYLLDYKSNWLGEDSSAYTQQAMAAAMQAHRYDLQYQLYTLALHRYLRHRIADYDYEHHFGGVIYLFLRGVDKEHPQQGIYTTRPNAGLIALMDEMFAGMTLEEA

[2] = Counterscreen for AddAB inhibitors: absorbance-based bacterial cell-based high throughput dose response assay for inhibitors of bacterial viability. [Related pubchem assays (depositor defined):AID435030, AID449728, AID449731, AID488942, AID488955, AID488956]; format: functional
[3] = biological target: DNA dC->dU-editing enzyme APOBEC-3A (Homo sapiens, UniProt P31941); test: Dose Response confirmation of small molecule APOBEC3A DNA Deaminase Inhibitors via a fluorescence-based single-stranded DNA deaminase assay. [Related pubchem assays (depositor defined):AID493011, AID493024]; format: functional
DNA dC->dU-editing enzyme APOBEC-3A, sequence (P31941 whole entry): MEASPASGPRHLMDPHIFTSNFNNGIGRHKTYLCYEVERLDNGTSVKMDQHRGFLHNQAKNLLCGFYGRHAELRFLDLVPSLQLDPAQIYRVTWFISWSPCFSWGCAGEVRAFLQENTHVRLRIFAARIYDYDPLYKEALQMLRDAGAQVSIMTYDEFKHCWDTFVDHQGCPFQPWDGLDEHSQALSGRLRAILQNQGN

[4] = biological target: DNA dC->dU-editing enzyme APOBEC-3G (Homo sapiens, UniProt Q9HC16); format: functional;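 also: Dose-response counterscreen measuring inhibition of APOBEC3G DNA deaminase activity, run while confirming APOBEC3A inhibitors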
DNA dC->dU-editing enzyme APOBEC-3G, sequence (Q9HC16 whole entry): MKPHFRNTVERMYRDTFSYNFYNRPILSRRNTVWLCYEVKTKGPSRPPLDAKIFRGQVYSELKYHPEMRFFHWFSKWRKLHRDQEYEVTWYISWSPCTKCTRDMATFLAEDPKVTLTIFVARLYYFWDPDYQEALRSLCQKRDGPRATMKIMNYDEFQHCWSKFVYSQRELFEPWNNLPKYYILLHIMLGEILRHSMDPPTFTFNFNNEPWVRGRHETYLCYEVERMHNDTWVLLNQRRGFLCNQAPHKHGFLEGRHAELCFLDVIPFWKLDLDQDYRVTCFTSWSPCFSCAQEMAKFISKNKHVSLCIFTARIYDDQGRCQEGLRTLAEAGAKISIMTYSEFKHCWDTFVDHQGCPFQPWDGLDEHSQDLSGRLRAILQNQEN

[5] = microbe, parasite or virus in culture; format: functional; conditions: Mycobacterium tuberculosis
[6] = biological target: T3, Short transient receptor potential channel 4 (Mus musculus, UniProt Q9QUQ5); test: mouse TRPC4 channel activators, dose response, cell-based, HEK293 TRPC4/mu-opioid, Fluo-4 calcium (AID 434937); format: functional
T3 sequence (Q9QUQ5 whole entry): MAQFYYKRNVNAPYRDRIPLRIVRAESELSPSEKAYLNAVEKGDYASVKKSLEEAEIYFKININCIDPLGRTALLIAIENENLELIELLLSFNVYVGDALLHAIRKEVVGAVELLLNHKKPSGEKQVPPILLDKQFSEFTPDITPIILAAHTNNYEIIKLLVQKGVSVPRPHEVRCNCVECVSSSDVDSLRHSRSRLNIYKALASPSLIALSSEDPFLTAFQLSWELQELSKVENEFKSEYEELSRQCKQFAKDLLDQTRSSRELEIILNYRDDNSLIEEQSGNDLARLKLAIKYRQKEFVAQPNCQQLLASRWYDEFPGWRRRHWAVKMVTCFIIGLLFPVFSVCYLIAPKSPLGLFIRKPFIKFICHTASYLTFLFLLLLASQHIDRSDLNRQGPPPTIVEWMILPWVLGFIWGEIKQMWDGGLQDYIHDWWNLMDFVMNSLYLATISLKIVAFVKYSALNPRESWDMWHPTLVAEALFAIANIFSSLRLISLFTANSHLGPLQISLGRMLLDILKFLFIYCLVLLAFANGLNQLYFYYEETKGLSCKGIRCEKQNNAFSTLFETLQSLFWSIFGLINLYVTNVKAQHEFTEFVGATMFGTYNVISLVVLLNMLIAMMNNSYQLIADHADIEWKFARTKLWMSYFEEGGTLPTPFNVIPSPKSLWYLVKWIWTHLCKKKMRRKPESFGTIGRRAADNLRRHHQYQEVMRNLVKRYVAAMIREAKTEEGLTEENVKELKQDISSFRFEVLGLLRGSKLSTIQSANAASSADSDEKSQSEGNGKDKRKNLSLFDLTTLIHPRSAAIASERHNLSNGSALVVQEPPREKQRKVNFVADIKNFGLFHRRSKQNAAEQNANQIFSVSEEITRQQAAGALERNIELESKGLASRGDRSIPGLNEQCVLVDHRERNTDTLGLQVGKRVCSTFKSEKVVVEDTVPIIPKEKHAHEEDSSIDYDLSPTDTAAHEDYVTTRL

[7] = biological target: Heat shock protein HSP 90-alpha (Homo sapiens, UniProt P07900); format: functional, organism-based
[8] = biological target: T3, Short transient receptor potential channel 4; test: mouse TRPC4 channel inhibitors, dose response, cell-based, HEK293 TRPC4/mu-opioid, Fluo-4 calcium (AID 434942); format: functional;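 also: potency of inhibitors blocking the TRPC4 calcium response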
[9] = intracellular Trypanosoma cruzi inhibitors in host cells – cell-based, plate reader, cherry-pick samples, set 3, dose response (AID 651818); format: functional;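 also: compounds incubated with infected cells for about four days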

With `COC(=O)Cn1c(=O)c2c(n(Cc3ccccc3)c1=O)=N/C(=C/c1ccc(Br)cc1)C=2O` the IC50 [1] was 5.15 µM (active).

In the case of `COc1ccc(NC(=O)CSc2nnc(-c3ccc(F)cc3)o2)cn1`, the IC50 (Exodeoxyribonuclease V) is reported as > 119 µM (inactive) and the IC50 [2] is reported as > 119 µM (inactive).

For `CCCCn1nc(NC(=O)COC)c2cc3ccc(C)cc3nc21`, the IC50 [3] was 3.49 µM (active) and the IC50 [4] was 5 µM (active).

For `O=C(Nc1nc2c(s1)CCCC2)C1CCCN1C(=O)c1cccs1` (stereo unspecified), the IC50 [3] was 10 µM (active) and the IC50 [4] was 15.8 µM (active).

With `CCC(C)NC(=O)c1cn(CC)c2cc(N3CCN(C(=O)c4ccco4)CC3)c(F)cc2c1=O` (stereo unspecified) the CC50 [5] was > 40 µM (active), the IC50 (Exodeoxyribonuclease V) was 89.9 µM (inactive) and the IC50 [2] was 22 µM (inactive).

With `CCOc1ccccc1OCC(=O)Nc1cc(S(=O)(=O)N2CCCCC2)ccc1N1CCN(CC)CC1` the IC50 [3] was 5.85 µM (active), the EC50 [6] was 4.22 µM (active) and the IC50 [4] was 6.44 µM (active).

In the case of `COc1cc(OC)c(CN2CCC(Cc3ccccc3)CC2)cc1Br`, the EC50 [6] is reported as 2.66 µM (active).

With `Cc1cc(Cl)ccc1N=C(S)NCc1ccccc1Cl` the IC50 (Exodeoxyribonuclease V) was > 119 µM (inactive) and the IC50 [2] was > 119 µM (inactive).

For `Cc1ccc(C)c(NC(=O)CSc2sc3c(O)cc(=O)[nH]c3c2C#N)c1`, the IC50 [1] was 6.09 µM (active).

With `O=C(O)c1cn(-c2ccc(N3CCCC3)c(F)c2)c2c(F)c(F)c(F)cc2c1=O` the IC50 (Exodeoxyribonuclease V) was > 119 µM (inactive), the IC50 [2] was 64.9 µM (inactive) and the AC50 [7] was 4.37 µM (active).

For `CN(C)C(CNC(=O)C1CCN(S(=O)(=O)c2cccc(C(F)(F)F)c2)CC1)c1ccccc1` (stereo unspecified), the EC50 [8] was 0.421 µM (active) and the EC50 [6] was 0.376 µM (active).

In the case of `Cc1ccc(C)c(OCCC(=O)OCC(=O)N2c3ccccc3NC(=O)C2(C)C)c1`, the IC50 [3] is reported as 11 µM (active) and the IC50 [4] is reported as 10.4 µM (active).

In the case of `C[C@@H]1CCCCO[C@H](CN(C)Cc2ccc(Cl)c(Cl)c2)[C@@H](C)CN([C@H](C)CO)C(=O)c2cc(NS(=O)(=O)c3ccc(F)cc3)ccc2O1`, the AC50 [9] is reported as 4.79 µM (active).

For `COc1ccc(S(=O)(=O)N(C)C[C@@H]2Oc3c(NS(=O)(=O)c4ccccc4)cccc3C(=O)N([C@@H](C)CO)C[C@@H]2C)cc1`, the AC50 [9] was 12.9 µM (active).

With `C[C@@H]1CN([C@H](C)CO)C(=O)Cc2cc(NC(=O)Nc3cccc4ccccc34)ccc2O[C@@H]1CN(C)Cc1ccc(Oc2ccccc2)cc1` the AC50 [9] was 2.15 µM (active).

In the case of `C[C@H]1CN([C@@H](C)CO)C(=O)c2cccc(NC(=O)c3nc4ccccc4s3)c2O[C@H]1CN(C)Cc1ccc(C(=O)Nc2ccccc2N)cc1`, the AC50 [9] is reported as 2.97 µM (active).

In the case of `O=C(COc1cccc([N+](=O)[O-])c1)N/N=C/c1ccco1`, the IC50 [1] is reported as 13.9 µM (active).

In the case of `Cc1cc(NS(=O)(=O)c2ccc(N)cc2)no1` [SULFAMETHOXAZOLE], the IC50 (Exodeoxyribonuclease V) is reported as > 119 µM (inactive) and the IC50 [2] is reported as 29.2 µM (inactive).
